According to patent publication US9598389B2, “Dihydrobenzofuran derivatives as insecticidal compounds” (SYNGENTA PARTICIPATIONS AG, priority 2013, dated 2017):

Assays:
Format in all cases: in vivo
[1] = test system: Spodoptera Littoralis (Egyptian Cotton Leaf Worm); assay: Spodoptera littoralis cotton leaf disc spray test; settings: foliar, 72 h, application rate of 200 ppm, L1 larvae, 3 days after infestation, read-out: control (at least one of mortality, anti-feedant effect, growth inhibition)
Description: Spodoptera Littoralis (Egyptian Cotton Leaf Worm)
Cotton leaf discs were placed on agar in 24-well microtiter plates and sprayed with aqueous test solutions prepared from 10,000 ppm DMSO stock solutions. After drying the leaf discs were infested with five L1 larvae. The samples were assessed for mortality, anti-feedant effect, and growth inhibition in comparison to untreated samples 3 days after infestation. Control of Spodoptera littoralis by a test sample is when at least one of mortality, anti-feedant effect, and growth inhibition is higher than the untreated sample.

[2] = test system: Heliothis virescens (Tobacco Budworm); assay: Heliothis virescens egg/larval test on artificial diet; settings: application rate of 200 ppm, eggs 0-24 h old, 5 days after infestation, read-out: egg or larval mortality
Description: Heliothis virescens (Tobacco Budworm):
Eggs (0-24 h old) were placed in 24-well microtiter plates on artificial diet and treated with aqueous test solutions prepared from 10,000 ppm DMSO stock solutions by pipetting. The samples were assessed for egg and larval mortality 5 days after infestation.

[3] = test system: Plutella xylostella (Diamond Back Moth); assay: Plutella xylostella L2 larvae test on artificial diet; settings: 120 h, application rate of 200 ppm, 5 days after infestation, read-out: effect in at least one of the two categories (mortality or growth inhibition)
Description: Plutella xylostella (Diamond Back Moth):
(§1) 24-well microtiter plates with artificial diet were treated with aqueous test solutions prepared from 10,000 ppm DMSO stock solutions by pipetting. After drying, the plates were infested with L2 larvae (10 to 15 per well). The samples were assessed for mortality and growth inhibition in comparison to untreated samples 5 days after infestation.

[4] = test system: Diabrotica balteata (Corn Root Worm); assay: Diabrotica balteata L2 larvae test on artificial diet; settings: 120 h, application rate of 200 ppm, 5 days after infestation, read-out: effect in at least one of the two categories (mortality or growth inhibition)
Description: Diabrotica balteata (Corn Root Worm):
as §1, with “(6” for “(10”, “10” for “15”

[5] = test system: Thrips tabaci (Onion Thrips); assay: Thrips tabaci sunflower leaf disc spray test; settings: foliar, 144 h, application rate of 200 ppm, population of mixed ages, 6 days after infestation
Description: Thrips tabaci (Onion Thrips):
(§2) Sunflower leaf discs were placed on agar in 24-well microtiter plates and sprayed with aqueous test solutions prepared from 10,000 ppm DMSO stock solutions. After drying the leaf discs were infested with a thrips population of mixed ages. The samples were assessed for mortality 6 days after infestation.

[6] = test system: Myzus persicae (Green Peach Aphid); assay: Myzus persicae sucrose solution feeding test; settings: 120 h, test rate of 12 ppm, 5 days after infestation
Description: Myzus persicae (Green Peach Aphid)
Test compounds from 10,000 ppm DMSO stock solutions were applied by pipette into 24-well microtiter plates and mixed with sucrose solution. The plates were closed with a stretched Parafilm. A plastic stencil with 24 holes was placed onto the plate and infested pea seedlings were placed directly on the Parafilm. The infested plate was closed with a gel blotting paper and another plastic stencil and then turned upside down. The samples were assessed for mortality 5 days after infestation.

[7] = test system: Tetranychus urticae (Two-Spotted Spider Mite); assay: Tetranychus urticae bean leaf disc spray test; settings: foliar, 192 h, application rate of 200 ppm, 8 days after infestation, read-out: mortality on mixed population (mobile stages)
Description: Tetranychus urticae (Two-Spotted Spider Mite):
as §2, with “Bean” for “Sunflower”, “discs” for “discs were placed”, “were” for “and”, “mite” for “thrips”, “on mixed population (mobile stages) 8” for “6”

O=C(Nc1cc(-c2ccc3c(c2)CC(c2cc(Cl)cc(Cl)c2)(C(F)(F)F)O3)ccn1)C1CC1 (stereo not shown) [Compound 137, N-[4-[2-(3,5-dichlorophenyl)-2-(trifluoromethyl)-3H-benzofuran-5-yl]-2-pyridyl]cyclopropanecarboxamide]
≥ 80%: percent control (mortality, anti-feedant effect or growth inhibition) at 200 ppm [1] | mortality at 200 ppm [2] | percent effect (mortality or growth inhibition) at 200 ppm [3] | percent effect (mortality or growth inhibition) at 200 ppm [4]

CCC(=O)Nc1cccc(-c2ccc3c(c2)CC(c2cc(Cl)cc(Cl)c2)(C(F)(F)F)C3=O)c1 (stereo not shown) [Compound 269, N-{3-[2-(3,5-Dichloro-phenyl)-1-oxo-2-trifluoromethyl-indan-5-yl]-phenyl}-propionamide]
≥ 80%: percent control (mortality, anti-feedant effect or growth inhibition) at 200 ppm [1] | mortality at 200 ppm [2] | percent effect (mortality or growth inhibition) at 200 ppm [3] | percent effect (mortality or growth inhibition) at 200 ppm [4] | mortality at 200 ppm [5]

O=C(Nc1cccc(-c2ccc3c(c2)CC(c2cccc(C(F)(F)F)c2)(C(F)(F)F)O3)c1)C1CC1 (stereo not shown) [Compound 182, N-(3-(2-(trifluoromethyl)-2-(3-(trifluoromethyl)phenyl)-2,3-dihydrobenzofuran-5-yl)phenyl)cyclopropanecarboxamide]
≥ 80%: percent control (mortality, anti-feedant effect or growth inhibition) at 200 ppm [1] | mortality at 200 ppm [2] | percent effect (mortality or growth inhibition) at 200 ppm [3]

CCC(=O)Nc1cccc(-c2ccc3c(c2)CC(c2cc(Cl)cc(Cl)c2)(C(F)(F)F)S3)c1 (stereo not shown) [Compound 268, N-[3-[2-(3,5-dichlorophenyl)-2-(trifluoromethyl)-3H-benzothiophen-5-yl]phenyl]propanamide]
≥ 80%: percent control (mortality, anti-feedant effect or growth inhibition) at 200 ppm [1] | percent effect (mortality or growth inhibition) at 200 ppm [3] | mortality at 12 ppm [6] | mortality at 200 ppm [5]

O=C(Nc1cccc(-c2ccc3c(c2)CC(c2cc(Cl)cc(Cl)c2)(C(F)(F)F)O3)c1F)C1CC1 (stereo not shown) [Compound 42, N-(3-(2-(3,5-dichlorophenyl)-2-(trifluoromethyl)-2,3-dihydrobenzofuran-5-yl)-2-fluorophenyl)cyclopropanecarboxamide]
≥ 80%: percent control (mortality, anti-feedant effect or growth inhibition) at 200 ppm [1] | mortality at 200 ppm [2]

O=C1CCCN1c1cccc(-c2ccc3c(c2)CC(c2cc(Cl)cc(Cl)c2)(C(F)(F)F)O3)c1 (stereo not shown) [Compound 254, 1-{3-[2-(3,5-Dichloro-phenyl)-2-trifluoromethyl-2,3-dihydro-benzofuran-5-yl]-phenyl}-pyrrolidin-2-one]
≥ 80%: percent effect (mortality or growth inhibition) at 200 ppm [3]

CCC(=O)Nc1ccnc(-c2cc3c(cc2Cl)OC(c2cc(Cl)cc(Cl)c2)(C(F)(F)F)C3)c1 (stereo not shown) [Compound 136, N-[2-[6-chloro-2-(3,5-dichlorophenyl)-2-(trifluoromethyl)-3H-benzofuran-5-yl]-4-pyridyl]propanamide]
≥ 80%: percent control (mortality, anti-feedant effect or growth inhibition) at 200 ppm [1] | mortality at 200 ppm [2] | percent effect (mortality or growth inhibition) at 200 ppm [3]

CCC(=O)Nc1cc(-c2ccc3c(c2)CC(c2cc(Cl)cc(Cl)c2)(C(F)(F)F)S3)ccc1C#N (stereo not shown) [Compound 267, N-{2-Cyano-5-[2-(3,5-dichloro-phenyl)-2-trifluoromethyl-2,3-dihydro-benzo[b]thiophen-5-yl]-phenyl}-propionamide]
≥ 80%: percent control (mortality, anti-feedant effect or growth inhibition) at 200 ppm [1] | percent effect (mortality or growth inhibition) at 200 ppm [3]

N#Cc1ccc(-c2ccc3c(c2)CC(c2cc(Cl)cc(Cl)c2)(C(F)(F)F)O3)cc1N1CCCC1=O (stereo not shown) [Compound 261, 4-[2-(3,5-Dichloro-phenyl)-2-trifluoromethyl-2,3-dihydro-benzofuran-5-yl]-2-(2-oxo-pyrrolidin-1-yl)-benzonitrile]
≥ 80%: percent control (mortality, anti-feedant effect or growth inhibition) at 200 ppm [1] | percent effect (mortality or growth inhibition) at 200 ppm [3]

CCC(=O)Nc1cccc(-c2ccc3c(c2)CC(c2cc(Cl)cc(Cl)c2)(C(F)(F)F)C3O)c1 (stereo not shown) [Compound 270, N-{3-[2-(3,5-Dichloro-phenyl)-1-hydroxy-2-trifluoromethyl-indan-5-yl]-phenyl}-propionamide]
≥ 80%: percent control (mortality, anti-feedant effect or growth inhibition) at 200 ppm [1] | mortality at 200 ppm [2] | percent effect (mortality or growth inhibition) at 200 ppm [3] | percent effect (mortality or growth inhibition) at 200 ppm [4]

O=C(Nc1cccc(-c2ccc3c(c2)CC(c2cc(Cl)cc(Cl)c2)(C(F)(F)F)O3)c1)C1CC1 (stereo not shown) [Compound 141, N-(3-(2-(3,5-dichlorophenyl)-2-(trifluoromethyl)-2,3-dihydrobenzofuran-5-yl)phenyl)cyclopropanecarboxamide]
≥ 80%: percent control (mortality, anti-feedant effect or growth inhibition) at 200 ppm [1] | mortality at 200 ppm [2] | percent effect (mortality or growth inhibition) at 200 ppm [3] | percent effect (mortality or growth inhibition) at 200 ppm [4] | mortality at 12 ppm [6] | mortality at 200 ppm [5]

CCC(=O)Nc1cc(-c2ccc3c(c2)CC(c2cc(Cl)cc(Cl)c2)(C(F)(F)F)O3)ccc1C#N (stereo not shown) [Compound 198, N-[2-cyano-5-[2-(3,5-dichlorophenyl)-2-(trifluoromethyl)-3H-benzofuran-5-yl]phenyl]propanamide]
≥ 80%: percent control (mortality, anti-feedant effect or growth inhibition) at 200 ppm [1] | mortality at 200 ppm [2] | percent effect (mortality or growth inhibition) at 200 ppm [3] | percent effect (mortality or growth inhibition) at 200 ppm [4] | mortality at 12 ppm [6] | mortality at 200 ppm [5] | mortality at 200 ppm [7]
